Measured values reported in article PMC9353477, “A Functional Screening Identifies a New Organic Selenium Compound Targeting Cancer Stem Cells: Role of c‐Myc Transcription Activity Inhibition in Liver Cancer” (Advanced Science, 2022).

Columns and labels:
[1] = molecular target: T1, truncated c-Myc protein (a.a 354-437) (Homo sapiens, UniProt P01106); assay: SPR (Biacore S200, CM5 chip); format: binding
T1 construct: bHLH/LZ domain fragment, residues 354-437; purified by DEAE ion exchange; coupled to CM5 chip; no Max present
T1 sequence (P01106 369-452): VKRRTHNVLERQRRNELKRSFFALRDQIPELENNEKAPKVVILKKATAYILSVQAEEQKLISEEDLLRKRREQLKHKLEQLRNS

[2] = in vitro; conditions: human, l02 cells
Protocol: (§1) The L02 and Hep3B cells were seeded in 96‐well plates (5000 cells per well), 24 h later, the cells were treated with DMSO (Control group) or each small molecule compound (10 µM) for another 48 h. Then cells were treated with CCK‐8 reagent (Dojindo Laboratories, Kumamoto, Japan) and incubated at 37 °C for 2 h. Absorbance at 450 nm was measured by SpectraMax M2e (Molecular devices, San Jose, CA). Five replicate wells for each group and three independent experiments were conducted. The cell viability (%) of each small molecule compound was normalized as the ratio of each compound/DMSO in L02 and Hep3B cells, respectively. The relative cell viability (%) = The cell viability of L02 cells (%) − The cell viability of Hep3B cells (%). […] Given that the common concentration used in in vitro drug screening is 10 µM,^[ [24] ^] therefore, in the three rounds of drug screening, all small molecules are 10 µM. […] A) Flowchart of functional screening. B) Scattered plot showing the cell viability of each small molecule in human normal fetal liver cell L02 and liver cancer Hep3B cells, 48 h after treatment with each compound (10 µM). […] C) Images and statistical histogram of 3D tumor spheroids from Hep3B (cultured for 5 days, followed by treated with 16 candidate compounds (10 µM) for another 3 days). Tumor spheroid was quantified as the total cross‐sectional area of spheroid in each group (area mean), n = 3, Means ± SD, ^* p < 0.05, ^** p < 0.01, Student's t‐test. D) Statistical histogram of the CD13^+CD133^+ population, 48 h after treatment with each candidate compound (10 µM), analyzed by FCM, n = 3, Means ± SD; ^* p < 0.05, ^** p < 0.01; Student's t‐test. E) Representative images of tumorspheres from HCC cells that received a 48‐h pretreatment with each candidate compound (10 µM) before tumorsphere culture. Bars, 1000 µm. Tumorspheres were quantified as the total cross‐sectional area of tumorspheres in each group (area sum), and similarly hereafter unless indicated. Statistical histogram of the tumorsphere size. n = 3, means ± SD, each compound compared with DMSO, ^* p < 0.05, ^** p < 0.01, Student's t‐test. F) Heat maps of functional screening results, shown by the relative value of CD13^+CD133^+ population (D) and tumorsphere size (E), with normalizing the vehicle group as 100%. CU27 chemical structure is shown in the right.

[3] = test system: Hep3B; assay: cells; conditions: 48 h; for viability at 10 µM: Homo sapiens, Hep3B, read-out: Cell viability of Hep3B (Mean of Hep3B/DMSO) (%)
Protocol: as §1

SMILES: C=CCNC(=[Se])NN=C(c1ccccc1)c1ncccn1 [4a, Phenyl‐2‐pyrimidinyl ketone 4‐allyl‐3‐amino selenourea]
- Kd [1]: 0.562 nM
- viability at 48 h, 10 µM [2]: 79.4%

SMILES: Cc1[nH]nc2ccc(-c3cncc(OC[C@@H](N)Cc4ccccc4)c3)cc12 [A-674563]
- viability at 10 µM [3]: 21.7%

SMILES: Cc1c(CN2CCN(C(=O)[C@H](C)O)CC2)sc2c(N3CCOCC3)nc(-c3cnc(N)nc3)nc12 [Apitolisib]
- viability at 48 h, 10 µM [2]: 37.1%
- viability at 10 µM [3]: 29.4%

SMILES: NC1(Cc2ccc(Cl)cc2)CCN(c2ncnc3[nH]ccc23)CC1 [CCT128930]
- viability at 10 µM [3]: 34.4%

SMILES: Cn1c(=O)n(-c2ccc(C(C)(C)C#N)cc2)c2c3cc(-c4cnc5ccccc5c4)ccc3ncc21 [Dactolisib]
- viability at 48 h, 10 µM [2]: 27.2%
- Cell viability of Hep3B (Mean of Hep3B/DMSO) (%) ([3]; [mut] cells, 10 µM): 21.03%

SMILES: CCn1c(-c2nonc2N)nc2c(C#CC(C)(C)O)ncc(OC[C@H]3CCCNC3)c21 [GSK690693]
- viability at 48 h, 10 µM [2]: 49.3%
- viability at 10 µM [3]: 63.8%

SMILES: O=C1NC(=O)/C(=C/c2ccc3nccc(-c4ccncc4)c3c2)S1 [GSK1059615]
- viability at 48 h, 10 µM [2]: 13.5%
- viability at 10 µM [3]: 17.9%

SMILES: O=S(=O)(NCCNC/C=C/c1ccc(Br)cc1)c1cccc2cnccc12 [H89 2HCL]
- viability at 10 µM [3]: 57%

SMILES: c1ccc2c(CCNc3ccc(Nc4ccncc4)cc3)c[nH]c2c1 [JNJ26854165]
- viability at 48 h, 10 µM [2]: 38%
- viability at 10 µM [3]: 17.7%

SMILES: O=C1NCCc2[nH]c(-c3ccncc3)cc21 [PHA-767491]
- viability at 48 h, 10 µM [2]: 22.2%

SMILES: COc1ccc(COc2cc3oc(=O)c4cc(C(C)O)ccc4c3cc2OC)cc1 (stereo not drawn) [Palomid529]
- viability at 48 h, 10 µM [2]: 58.1%
- viability at 10 µM [3]: 62.4%

SMILES: CCC(=O)N1CCN(c2ccc(-n3c(=O)ccc4cnc5ccc(-c6cnc7ccccc7c6)cc5c43)cc2C(F)(F)F)CC1 [Torin1]
- viability at 10 µM [3]: 24%

SMILES: CC(C)n1nc(-c2cc3cc(O)ccc3[nH]2)c2c(N)ncnc21 [Torkinib]
- viability at 10 µM [3]: 44.8%

SMILES: CCn1c(=O)c(-c2cc[nH]n2)cc2c(C)nc(N)nc21 [Voxtalisib]
- viability at 48 h, 10 µM [2]: 26.9%
- viability at 10 µM [3]: 23.1%

SMILES: CNC(=O)Nc1ccc(-c2nc(N3CC4CCC(C3)O4)c3cnn(C4CCC5(CC4)OCCO5)c3n2)cc1 [WYE-125132]
- viability at 48 h, 10 µM [2]: 45.1%
- viability at 10 µM [3]: 27.2%
